Test results published in paper PMC9516332 (Frontiers in Oncology, 2022).
Where two headings read alike, the source gives them in different places.

Assays:
134 cancer cell lines = assay: Cell viability assay (ATPlite, 72 hours), IC50 on cancer cell line panel
[1] = molecular target: panel of 255 wild-type kinases (Homo sapiens, UniProt Q9Y6M4); assay: Kinase panel profiling at 1 µmol/L (MSA or IMAP), percentage inhibition; format: biochemical; conditions: kinase CK1γ3; 1 µmol/L single concentration; read-out: %-inhibition at 1 µmol/L, CK1γ3
[2] = molecular target: panel of 255 wild-type kinases (Homo sapiens, UniProt P29317); assay: as above; format: biochemical; conditions: kinase EPHA2; 1 µmol/L single concentration; read-out: %-inhibition at 1 µmol/L, EPHA2
AP-1060 (ETV6-NTRK3) = assay: Cell viability assay; conditions: read-out: IC50 in cell proliferation assay

COC(=O)N[C@@H](C)CNc1nccc(-c2cn(C(C)C)nc2-c2cc(Cl)cc(NS(C)(=O)=O)c2F)n1 [encorafenib]
IC50 (134 cancer cell lines; Homo sapiens, MeWo, read-out: IC50 in cell proliferation assay, MeWo cell line): 1 µM | IC50 (134 cancer cell lines; Homo sapiens, NCCIT, read-out: IC50 in cell proliferation assay, NCC-IT cell line): 1.04 µM | IC50 (134 cancer cell lines; Homo sapiens, NCI-H82, read-out: IC50 in cell proliferation assay, cell line NCI-H82): 1.07 µM | IC50 (134 cancer cell lines; Homo sapiens, NCI-H460, read-out: IC50 in cell proliferation assay, NCI-H460 cell line): 1.16 µM | IC50 (134 cancer cell lines; Homo sapiens, NCI-H661, read-out: IC50 in cell proliferation assay, NCI-H661 cell line): 0.821 µM | IC50 (134 cancer cell lines; Homo sapiens, NCI-H716, read-out: IC50 in cell proliferation assay, cell line NCI-H716 (FGFR2-COL14A1)): 9.56 µM | IC50 (134 cancer cell lines; Homo sapiens, NCI-H1650, read-out: IC50 in cell proliferation assay, NCI-H1650 cell line (EGFR exon19del)): > 31.6 µM | IC50 (134 cancer cell lines; Homo sapiens, NCI-H1975, read-out: IC50 in cell proliferation assay, NCI-H1975 cell line (EGFR p.L858R + p.T790M)): 1.44 µM | IC50 (134 cancer cell lines; Homo sapiens, NCI-H2228, read-out: IC50 in cell proliferation assay, NCI-H2228 cell line (EML4-ALK)): 2.3 µM | IC50 (134 cancer cell lines; Homo sapiens, OVCAR-3, read-out: IC50 in cell proliferation assay, cell line OVCAR-3): 0.695 µM | IC50 (134 cancer cell lines; Homo sapiens, PFSK-1, read-out: IC50 in cell proliferation assay, cell line PFSK-1): 1 µM | IC50 (134 cancer cell lines; Homo sapiens, RL95-2, read-out: IC50 in cell proliferation assay, cell line RL95-2 (EGFR p.A289V)): 0.924 µM | IC50 (134 cancer cell lines; Homo sapiens, RPMI-7951, read-out: IC50 in cell proliferation assay, cell line RPMI-7951 (BRAF p.V600E)): 0.013 µM | IC50 (134 cancer cell lines; Homo sapiens, RS4-11, read-out: IC50 in cell proliferation assay, cell line RS4;11): 0.925 µM | IC50 (134 cancer cell lines; Homo sapiens, Rec1, read-out: IC50 in cell proliferation assay, cell line REC-1): 8.53 µM | IC50 (134 cancer cell lines; Homo sapiens, SHP77, read-out: IC50 in cell proliferation assay, cell line SHP-77): > 31.6 µM | IC50 (134 cancer cell lines; Homo sapiens, SK-BR-3, read-out: IC50 in cell proliferation assay, cell line SK-BR-3 (ERBB2 amplification)): > 31.6 µM | IC50 (134 cancer cell lines; Homo sapiens, SK-N-AS, read-out: IC50 in cell proliferation assay, cell line SK-N-AS): 1.11 µM | IC50 (134 cancer cell lines; Homo sapiens, SK-N-FI, read-out: IC50 in cell proliferation assay, cell line SK-N-FI): 3.29 µM | IC50 (134 cancer cell lines; Homo sapiens, SK-N-MC, read-out: IC50 in cell proliferation assay, cell line SK-N-MC): 0.976 µM | IC50 (134 cancer cell lines; Homo sapiens, SK-N-SH, read-out: IC50 in cell proliferation assay, cell line SK-N-SH (ALK p.F1174L)): 1.11 µM | IC50 (134 cancer cell lines; Homo sapiens, SNU-5, read-out: IC50 in cell proliferation assay, cell line SNU-5 (MET amplification)): 7.36 µM | IC50 (134 cancer cell lines; Homo sapiens, SNU-16, read-out: IC50 in cell proliferation assay, cell line SNU-16 (FGFR2 amplification)): 1.75 µM | IC50 (134 cancer cell lines; Homo sapiens, SNU-C2B, read-out: IC50 in cell proliferation assay, cell line SNU-C2B (EGFR p.R165Q)): 9.59 µM | IC50 (134 cancer cell lines; Homo sapiens, SU-DHL-1, read-out: IC50 in cell proliferation assay, cell line SU-DHL-1 (NPM1-ALK)): 2.15 µM | IC50 (134 cancer cell lines; Homo sapiens, SU-DHL-6, read-out: IC50 in cell proliferation assay, cell line SU-DHL-6): 5.81 µM | IC50 (134 cancer cell lines; Homo sapiens, SUP-T1, read-out: IC50 in cell proliferation assay, cell line SUP-T1): > 31.6 µM | IC50 (134 cancer cell lines; Homo sapiens, SW48, read-out: IC50 in cell proliferation assay, cell line SW48 (EGFR p.G719S)): 2.23 µM | IC50 (134 cancer cell lines; Homo sapiens, SW480, read-out: IC50 in cell proliferation assay, cell line SW480): 1.22 µM | IC50 (134 cancer cell lines; Homo sapiens, SW626, read-out: IC50 in cell proliferation assay, cell line SW626): 2.44 µM | IC50 (134 cancer cell lines; Homo sapiens, SW780, read-out: IC50 in cell proliferation assay, cell line SW780 (FGFR3-BAIAP2L1)): 19.8 µM | IC50 (134 cancer cell lines; Homo sapiens, SW837, read-out: IC50 in cell proliferation assay, cell line SW837): > 31.6 µM | IC50 (134 cancer cell lines; Homo sapiens, SW872, read-out: IC50 in cell proliferation assay, cell line SW872 (BRAF p.V600E)): 0.007 µM | IC50 (134 cancer cell lines; Homo sapiens, SW900, read-out: IC50 in cell proliferation assay, cell line SW900): 1.39 µM | IC50 (134 cancer cell lines; Homo sapiens, SW948, read-out: IC50 in cell proliferation assay, cell line SW948): 3.23 µM | IC50 (134 cancer cell lines; Homo sapiens, SW982, read-out: IC50 in cell proliferation assay, cell line SW982 (BRAF p.V600E)): 0.549 µM | IC50 (134 cancer cell lines; Homo sapiens, SW-620, read-out: IC50 in cell proliferation assay, cell line SW620): 1.81 µM | IC50 (134 cancer cell lines; Homo sapiens, T98G, read-out: IC50 in cell proliferation assay, cell line T98G): 1.67 µM | IC50 (134 cancer cell lines; Homo sapiens, TCC-SUP, read-out: IC50 in cell proliferation assay, cell line TCCSUP): 0.74 µM | IC50 (134 cancer cell lines; Homo sapiens, THP-1, read-out: IC50 in cell proliferation assay, cell line THP-1): 2.46 µM | IC50 (134 cancer cell lines; Homo sapiens, U2OS, read-out: IC50 in cell proliferation assay, cell line U2OS): 1.46 µM | IC50 (134 cancer cell lines; Homo sapiens, U-87 MG, read-out: IC50 in cell proliferation assay, cell line U-87MG ATCC): 1.05 µM | IC50 (134 cancer cell lines; Homo sapiens, U-118-MG, read-out: IC50 in cell proliferation assay, cell line U-118MG): 1.41 µM | IC50 (134 cancer cell lines; Homo sapiens, UMUC3, read-out: IC50 in cell proliferation assay, cell line UM-UC-3): 0.993 µM | IC50 (134 cancer cell lines; Hs766T, read-out: IC50 in cell proliferation assay, Hs 766T cell line): 1.91 µM | IC50 (134 cancer cell lines; L-82, read-out: IC50 in cell proliferation assay, L-82 cell line (NPM1-ALK)): 8.75 µM | IC50 (134 cancer cell lines; Rh30, read-out: IC50 in cell proliferation assay, cell line Rh30): 1.08 µM | IC50 (134 cancer cell lines; read-out: IC50 in cell proliferation assay, 11-18 cell line (EGFR p.L858R)): > 31.6 µM | IC50 (134 cancer cell lines; read-out: IC50 in cell proliferation assay, Hs 852.T cell line): 3.37 µM | IC50 (134 cancer cell lines; read-out: IC50 in cell proliferation assay, JAR cell line): 0.419 µM | IC50 (134 cancer cell lines; read-out: IC50 in cell proliferation assay, cell line 5637): 0.586 µM | IC50 (134 cancer cell lines; read-out: IC50 in cell proliferation assay, cell line A-388): 2 µM | IC50 (134 cancer cell lines; read-out: IC50 in cell proliferation assay, cell line DB): 1.21 µM | IC50 (134 cancer cell lines; read-out: IC50 in cell proliferation assay, cell line DEL (NPM1-ALK)): 6.42 µM | IC50 (134 cancer cell lines; read-out: IC50 in cell proliferation assay, cell line ES-2 (BRAF p.V600E)): 0.1 µM | IC50 (134 cancer cell lines; read-out: IC50 in cell proliferation assay, cell line PA-1): 0.841 µM | IC50 (134 cancer cell lines; read-out: IC50 in cell proliferation assay, cell line PC-3): 1.37 µM | IC50 (134 cancer cell lines; read-out: IC50 in cell proliferation assay, cell line RD): 1.63 µM | IC50 (134 cancer cell lines; read-out: IC50 in cell proliferation assay, cell line RKO (BRAF p.V600E)): 0.244 µM | IC50 (134 cancer cell lines; read-out: IC50 in cell proliferation assay, cell line RL): 29.2 µM | IC50 (134 cancer cell lines; read-out: IC50 in cell proliferation assay, cell line RT-4 (FGFR3-TACC3)): 3.77 µM | IC50 (134 cancer cell lines; read-out: IC50 in cell proliferation assay, cell line SR (NPM1-ALK)): 0.921 µM | IC50 (134 cancer cell lines; read-out: IC50 in cell proliferation assay, cell line T24): 1.05 µM | IC50 (134 cancer cell lines; read-out: IC50 in cell proliferation assay, cell line TT (RET p.C634W)): 5.09 µM | IC50 (134 cancer cell lines; read-out: IC50 in cell proliferation assay, cell line VA-ES-BJ): 1.13 µM | inhibition at 1 µM [1]: 10% | inhibition at 1 µM [2]: 9% | IC50 (AP-1060 (ETV6-NTRK3)): 2.52 µM
